In brackets after ≈: the same amount, converted by molar mass. Read-outs that look alike come from different tables or passages of the source.
Key:
[1] = system: P. aeruginosa CDC-0090; assay: microbe, parasite or virus in culture; format: cell-based; settings: Pseudomonas aeruginosa, CDC0090, read-out: Minimum inhibitory concentration, P. aeruginosa CDC-0090
[2] = system: N. gonorrhoeae CDC-0197; assay: Liquid broth MIC in Fastidious broth; settings: Neisseria gonorrhoeae
[3] = system: A. baumannii ATCC 17978; assay: microbe, parasite or virus in culture; format: cell-based; settings: Acinetobacter baumannii, ATCC17978, read-out: MIC, A. baumannii ATCC 17978
[4] = system: B. humptydooensis ATCC BAA-2767; assay: microbe, parasite or virus in culture; format: cell-based; settings: Burkholderia humptydooensis, ATCCBAA2767, read-out: Minimum inhibitory concentration (MIC), B. humptydooensis ATCC BAA-2767
[5] = system: P. aeruginosa CDC-0110; assay: microbe, parasite or virus in culture; format: cell-based; settings: Pseudomonas aeruginosa, CDC0110, read-out: Minimum inhibitory concentration, P. aeruginosa CDC-0110
[6] = system: A. baumannii 1258916; assay: microbe, parasite or virus in culture; format: cell-based, Acinetobacter baumannii; settings: Acinetobacter baumannii, 1258916, read-out: MIC, A. baumannii 1258916
[7] = system: P. aeruginosa (ΔmexAB-oprM); assay: Broth microdilution MIC in iron-depleted CAMHB (IDM); format: cell-based; settings: Pseudomonas aeruginosa; iron-depleted CAMHB (IDM); […]; read-out: Minimum inhibitory concentration, P. aeruginosa ΔmexAB-oprM
[8] = system: A. baumannii CDC-0045; assay: microbe, parasite or virus in culture; format: cell-based; settings: Acinetobacter baumannii, CDC0045, read-out: MIC, A. baumannii CDC-0045
[9] = system: N. gonorrhoeae WHO X; assay: Liquid broth MIC in Fastidious broth; settings: Neisseria gonorrhoeae
[10] = system: N. gonorrhoeae WHO Q; assay: Liquid broth MIC in Fastidious broth; settings: Neisseria gonorrhoeae
[11] = system: A. baumannii ATCC 19606; assay: microbe, parasite or virus in culture; format: cell-based; settings: Acinetobacter baumannii, ATCC19606, read-out: MIC, A. baumannii ATCC 19606
[12] = system: A. baumannii CDC-0036; assay: microbe, parasite or virus in culture; format: cell-based; settings: Acinetobacter baumannii, CDC0036, read-out: MIC, A. baumannii CDC-0036
[13] = system: P. aeruginosa ATCC 35151; assay: microbe, parasite or virus in culture; format: cell-based; settings: Pseudomonas aeruginosa, ATCC35151, read-out: Minimum inhibitory concentration, P. aeruginosa ATCC 35151
[14] = system: B. thailandensis ATCC 700388; assay: microbe, parasite or virus in culture; format: cell-based; settings: Burkholderia thailandensis, ATCC700388, read-out: Minimum inhibitory concentration (MIC), B. thailandensis ATCC 700388
[15] = system: P. aeruginosa ATCC 27853; assay: microbe, parasite or virus in culture; format: cell-based; settings: Pseudomonas aeruginosa, ATCC27853, read-out: Minimum inhibitory concentration, P. aeruginosa ATCC 27853
[16] = CDC0197, read-out: Minimum Inhibitory Concentration (MIC), N. gonorrhoeae CDC-0197
[17] = read-out: Minimum Inhibitory Concentration (MIC), N. gonorrhoeae WHO X
[18] = read-out: Minimum Inhibitory Concentration (MIC), N. gonorrhoeae WHO Q
[19] = CDC0197, read-out: Minimum Inhibitory Concentration, CDC-0197
[20] = read-out: Minimum Inhibitory Concentration, WHO X
[21] = read-out: Minimum Inhibitory Concentration, WHO Q

Row | SMILES | MIC [1] [µg/mL] | MIC [2, 16] [µg/mL] | MIC [3] [µg/mL] | MIC [4] [µg/mL] | MIC [5] [µg/mL] | MIC [6] [µg/mL] | MIC [7] [µg/mL] | MIC [8] [µg/mL] | MIC [9, 17] [µg/mL] | MIC [10, 18] [µg/mL] | MIC [11] [µg/mL] | MIC [12] [µg/mL] | MIC [13] [µg/mL] | MIC [14] [µg/mL] | MIC [15] [µg/mL] | MIC [2, 19] [µg/mL] | MIC [9, 20] [µg/mL] | MIC [10, 21] [µg/mL]
1 | O=C(CN1CCN(C(=O)NC(C(=O)N[C@H]2Cc3ccc(F)c(C(=O)O)c3OB2O)c2cc(F)c(O)c(O)c2Cl)C(=O)C1=O)Nc1nccs1 (stereo partly drawn) [Example 235, (3R)-3-(2-(2-chloro-5-fluoro-3,4-dihydroxyphenyl)-2-(2,3-dioxo-4-(2-oxo-2-(thiazol-2-ylamino)ethyl)piperazine-1-carboxamido)acetamido)-7-fluoro-2-hydroxy-3,4-dihydro-2H-benzo[e][1,2]oxaborinine-8-carboxylic acid] | 2 to 4 (≈ 2.77 to 5.53 µM) | 16 to 32 (≈ 22.1 to 44.3 µM) | < 1 | < 1 | < 1 | 2 to 4 (≈ 2.77 to 5.53 µM) | < 1 | 2 to 4 (≈ 2.77 to 5.53 µM) | > 64 | 16 to 32 (≈ 22.1 to 44.3 µM) | < 1 | 2 to 4 (≈ 2.77 to 5.53 µM) | < 1 | 8 to 16 (≈ 11.1 to 22.1 µM) | 2 to 4 (≈ 2.77 to 5.53 µM) | – | – | –
2 | CN(CCN1CCN(C(=O)NC(C(=O)N[C@H]2Cc3ccc(F)c(C(=O)O)c3OB2O)c2cc(F)c(O)c(O)c2Cl)C(=O)C1=O)S(=O)(=O)c1ccc(C(N)=O)cc1 (stereo partly drawn) [Example 223, (3R)-3-(2-(4-(2-((4-carbamoyl-N-methylphenyl)sulfonamido)ethyl)-2,3-dioxopiperazine-1-carboxamido)-2-(2-chloro-5-fluoro-3,4-dihydroxyphenyl)acetamido)-7-fluoro-2-hydroxy-3,4-dihydro-2H-benzo[e][1,2]oxaborinine-8-carboxylic acid] | 2 to 4 (≈ 2.43 to 4.86 µM) | > 64 | < 1 | < 1 | < 1 | 2 to 4 (≈ 2.43 to 4.86 µM) | < 1 | < 1 | > 64 | > 64 | < 1 | 8 to 16 (≈ 9.72 to 19.4 µM) | < 1 | 2 to 4 (≈ 2.43 to 4.86 µM) | 2 to 4 (≈ 2.43 to 4.86 µM) | – | – | –
3 | O=C(NCCS(=O)(=O)N1CCN(C(=O)NC(C(=O)N[C@H]2Cc3ccc(F)c(C(=O)O)c3OB2O)c2cc(F)c(O)c(O)c2Cl)C1=O)Nc1cccc(O)c1 (stereo partly drawn) [Example 266, (3R)-3-(2-(2-chloro-5-fluoro-3,4-dihydroxyphenyl)-2-(3-((2-(3-(3-hydroxyphenyl)ureido)ethyl)sulfonyl)-2-oxoimidazolidine-1-carboxamido)acetamido)-7-fluoro-2-hydroxy-3,4-dihydro-2H-benzo[e][1,2]oxaborinine-8-carboxylic acid] | 2 to 4 (≈ 2.51 to 5.02 µM) | – | < 1 | 8 to 16 (≈ 10 to 20.1 µM) | 2 to 4 (≈ 2.51 to 5.02 µM) | < 1 | < 1 | < 1 | – | – | < 1 | 2 to 4 (≈ 2.51 to 5.02 µM) | < 1 | 2 to 4 (≈ 2.51 to 5.02 µM) | 2 to 4 (≈ 2.51 to 5.02 µM) | 16 to 32 (≈ 20.1 to 40.2 µM) | > 64 | 16 to 32 (≈ 20.1 to 40.2 µM)
4 | CN(CCN1CCN(C(=O)N[C@@H](C(=O)N[C@H]2Cc3ccc(F)c(C(=O)O)c3OB2O)c2cc(F)c(O)c(O)c2Cl)C(=O)C1=O)Cc1ccc(C(N)=O)cc1 [Example 226, (R)-3-((R)-2-(4-(2-((4-carbamoylbenzyl)(methyl)amino)ethyl)-2,3-dioxopiperazine-1-carboxamido)-2-(2-chloro-5-fluoro-3,4-dihydroxyphenyl)acetamido)-7-fluoro-2-hydroxy-3,4-dihydro-2H-benzo[e][1,2]oxaborinine-8-carboxylic acid] | < 1 | > 64 | < 1 | < 1 | < 1 | < 1 | < 1 | < 1 | > 64 | > 64 | < 1 | 2 to 4 (≈ 2.59 to 5.18 µM) | < 1 | < 1 | 2 to 4 (≈ 2.59 to 5.18 µM) | – | – | –
5 | O=C(NCCCS(=O)(=O)N1CCN(C(=O)NC(C(=O)N[C@H]2Cc3ccc(F)c(C(=O)O)c3OB2O)c2cc(F)c(O)c(O)c2Cl)C1=O)c1ccncc1 (stereo partly drawn) [Example 272, (3R)-3-(2-(2-chloro-5-fluoro-3,4-dihydroxyphenyl)-2-(3-((3-(isonicotinamido)propyl)sulfonyl)-2-oxoimidazolidine-1-carboxamido)acetamido)-7-fluoro-2-hydroxy-3,4-dihydro-2H-benzo[e][1,2]oxaborinine-8-carboxylic acid] | 2 to 4 (≈ 2.56 to 5.12 µM) | – | < 1 | 2 to 4 (≈ 2.56 to 5.12 µM) | 2 to 4 (≈ 2.56 to 5.12 µM) | 2 to 4 (≈ 2.56 to 5.12 µM) | < 1 | < 1 | – | – | < 1 | 2 to 4 (≈ 2.56 to 5.12 µM) | < 1 | 2 to 4 (≈ 2.56 to 5.12 µM) | 2 to 4 (≈ 2.56 to 5.12 µM) | 16 to 32 (≈ 20.5 to 41 µM) | > 64 | 16 to 32 (≈ 20.5 to 41 µM)
6 | O=C(CN1CCN(C(=O)N[C@@H](C(=O)N[C@H]2Cc3ccc(F)c(C(=O)O)c3OB2O)c2cc(F)c(O)c(O)c2Cl)C(=O)C1=O)NCc1nccs1 [Example 241, (R)-3-((R)-2-(2-chloro-5-fluoro-3,4-dihydroxyphenyl)-2-(2,3-dioxo-4-(2-oxo-2-((thiazol-2-ylmethyl)amino)ethyl)piperazine-1-carboxamido)acetamido)-7-fluoro-2-hydroxy-3,4-dihydro-2H-benzo[e][1,2]oxaborinine-8-carboxylic acid] | 2 to 4 (≈ 2.71 to 5.43 µM) | 16 to 32 (≈ 21.7 to 43.4 µM) | < 1 | 2 to 4 (≈ 2.71 to 5.43 µM) | < 1 | < 1 | < 1 | 2 to 4 (≈ 2.71 to 5.43 µM) | > 64 | 16 to 32 (≈ 21.7 to 43.4 µM) | < 1 | 2 to 4 (≈ 2.71 to 5.43 µM) | < 1 | 2 to 4 (≈ 2.71 to 5.43 µM) | < 1 | – | – | –
7 | O=C(NCCN1CCN(C(=O)NC(C(=O)N[C@H]2Cc3ccc(F)c(C(=O)O)c3OB2O)c2cc(F)c(O)c(O)c2Cl)C(=O)C1=O)c1nccs1 (stereo partly drawn) [Example 218, (3R)-3-(2-(2-chloro-5-fluoro-3,4-dihydroxyphenyl)-2-(2,3-dioxo-4-(2-(thiazole-2-carboxamido)ethyl)piperazine-1-carboxamido)acetamido)-7-fluoro-2-hydroxy-3,4-dihydro-2H-benzo[e][1,2]oxaborinine-8-carboxylic acid] | < 1 | 16 to 32 (≈ 21.7 to 43.4 µM) | < 1 | 2 to 4 (≈ 2.71 to 5.43 µM) | 2 to 4 (≈ 2.71 to 5.43 µM) | 2 to 4 (≈ 2.71 to 5.43 µM) | < 1 | 8 to 16 (≈ 10.9 to 21.7 µM) | > 64 | > 64 | 2 to 4 (≈ 2.71 to 5.43 µM) | 8 to 16 (≈ 10.9 to 21.7 µM) | < 1 | 2 to 4 (≈ 2.71 to 5.43 µM) | 2 to 4 (≈ 2.71 to 5.43 µM) | – | – | –
8 | O=C(NCCS(=O)(=O)N1CCN(C(=O)N[C@H](C(=O)N[C@H]2Cc3ccc(F)c(C(=O)O)c3OB2O)c2cc(F)c(O)c(O)c2Cl)C1=O)c1nccs1 [Example 263, (R)-3-((S)-2-(2-chloro-5-fluoro-3,4-dihydroxyphenyl)-2-(2-oxo-3-((2-(thiazole-2-carboxamido)ethyl)sulfonyl)imidazolidine-1-carboxamido)acetamido)-7-fluoro-2-hydroxy-3,4-dihydro-2H-benzo[e][1,2]oxaborinine-8-carboxylic acid] | 32 to 64 (≈ 41.4 to 82.8 µM) | – | < 1 | 8 to 16 (≈ 10.4 to 20.7 µM) | > 128 | 32 to 64 (≈ 41.4 to 82.8 µM) | 8 to 16 (≈ 10.4 to 20.7 µM) | 32 to 64 (≈ 41.4 to 82.8 µM) | – | – | 8 to 16 (≈ 10.4 to 20.7 µM) | 32 to 64 (≈ 41.4 to 82.8 µM) | 2 to 4 (≈ 2.59 to 5.18 µM) | 8 to 16 (≈ 10.4 to 20.7 µM) | 32 to 64 (≈ 41.4 to 82.8 µM) | > 64 | > 64 | > 64
